Values quoted from earlier work in patent US6720307B2, “Glycosylated analogs of fusidic acid” (The University of Michigan, priority 1996, dated 2004).

Columns and labels:
[1] = tested on: Nocardia spp.
[2] = tested on: Bacteroides spp.
[3] = tested on: Psuedomonas spp.
[4] = tested on: Gram-negative bacilli
[5] = tested on: S. epidermidis
[6] = tested on: corynebacteria
[7] = tested on: fungi
[8] = tested on: methicillin-resistant staphylococci
[9] = tested on: enterobacteria; details: all enterobacteria
[10] = tested on: streptococci
[11] = tested on: Neisseria
[12] = tested on: Clostridium spp.
[13] = tested on: HIV; details: in vitro
[14] = tested on: mycobacteria
[15] = tested on: Staphylococcus aureus

In the case of `CC(=O)O[C@H]1C[C@@]2(C)[C@@H](C[C@@H](O)[C@H]3[C@@]4(C)CC[C@@H](O)[C@@H](C)[C@@H]4CC[C@@]32C)/C1=C(\CCC=C(C)C)C(=O)O` [fusidic acid, 3α,11α,16β-Trihydroxy-29-nor-8α,9β,13α,14β-dammara-17(20),24-dien-21-oic acid 16-acetate], the efficacy [1] is given as “moderate efficacy”, the “susceptibility to fusidic acid” value [2] is given as “susceptible” and the “susceptibility to fusidic acid” value [3] is given as “resistant”. For the same molecule, the “susceptibility to fusidic acid” value [4] was “resistant”, the “susceptibility to fusidic acid” value [5] was “highly susceptible” and the “susceptibility to fusidic acid” value [6] was “highly susceptible”. The “susceptibility to fusidic acid” value [7] was “resistant”, the “susceptibility to fusidic acid” value [8] was “usually susceptible” and the “susceptibility to fusidic acid” value [9] was “resistant”. For the same molecule, the efficacy [10] was “moderate efficacy”, the “susceptibility to fusidic acid” value [11] was “susceptible” and the “susceptibility to fusidic acid” value [12] was “highly susceptible”. For the same molecule, the “effectiveness against HIV” value [13] was “in vitro effectiveness”, the efficacy [14] was “moderate efficacy” and the “susceptibility to fusidic acid” value [15] was “highly susceptible”.
